Usually melting point stands for the temperature, or range, at which the solid turns liquid. A word on the Papp A→B: it is the apparent permeability from the apical to the basolateral side of a cell layer.

Data on nine molecules can be found in US20050234065A1, “Dipeptidyl peptidase-IV inhibitors” (Pfizer Inc, priority 2004, published 2005).

pIC50: −log10 of the molar value. Several values for one entry are separate records, joined by “and”; a condition that tells them apart may be missing. Identical values can stand only once. Counter-ions that a name gives are not always drawn. Bounds are passed on as bounds.

For one series, the target named is T1, DPP-IV (Homo sapiens, UniProt P27487).
T1 construct: purchased Enzyme Systems Products SPE-01
T1 sequence (P27487 whole entry, species assumed): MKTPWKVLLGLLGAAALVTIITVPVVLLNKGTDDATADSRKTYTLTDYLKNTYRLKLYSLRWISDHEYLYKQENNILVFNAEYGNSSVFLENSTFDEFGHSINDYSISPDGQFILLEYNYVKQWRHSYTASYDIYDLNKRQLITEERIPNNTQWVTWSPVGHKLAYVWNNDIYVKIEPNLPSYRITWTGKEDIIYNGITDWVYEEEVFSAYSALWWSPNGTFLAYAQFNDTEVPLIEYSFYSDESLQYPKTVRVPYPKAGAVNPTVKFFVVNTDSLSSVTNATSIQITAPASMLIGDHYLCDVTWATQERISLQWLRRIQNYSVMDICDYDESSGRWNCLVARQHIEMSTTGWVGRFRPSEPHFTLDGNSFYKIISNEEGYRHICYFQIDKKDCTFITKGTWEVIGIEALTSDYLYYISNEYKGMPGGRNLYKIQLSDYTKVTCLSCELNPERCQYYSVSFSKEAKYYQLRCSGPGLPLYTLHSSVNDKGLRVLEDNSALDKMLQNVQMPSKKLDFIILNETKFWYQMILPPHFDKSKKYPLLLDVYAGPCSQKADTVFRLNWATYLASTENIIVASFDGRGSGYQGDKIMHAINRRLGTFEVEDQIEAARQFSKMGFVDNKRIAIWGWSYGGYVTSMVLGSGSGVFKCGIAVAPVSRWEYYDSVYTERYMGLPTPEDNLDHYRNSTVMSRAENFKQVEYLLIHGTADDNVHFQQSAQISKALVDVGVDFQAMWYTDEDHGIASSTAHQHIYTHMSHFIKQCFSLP
As to the kind of experiment: In vitro assay for dipeptidyl peptidase inhibition. It is filed as biochemical. The note with it: hydrochloride salts; Gly-Pro-4-methoxy B naphthylamide substrate; overnight at 37° C.; read-out: IC50 (concentration of test compound required for 50% inhibition). The protocol: 150 μL of an enzyme-substrate solution was pipetted into microtiter wells of a polystyrene 96-well plate, and maintained at 4° C. The enzyme-substrate solution comprised 50 μM Gly-Pro-4-methoxy B naphthylamide HCl in 50 mM Tris assay buffer pH 7.3 containing 0.1M sodium chloride, 0.1% (v/v) Triton and 50 μU/mL DPP-IV (Enzyme Systems Products Cat#SPE-01, DPP-IV 5 mU/mL stock). 5 μL/well of compounds of Formula (I) were added, bringing the final compound of Formula (I) concentrations to 3 μM-10 nM per well.
Controls. Enzyme was omitted from four (4) wells, as a reagent blank. 5 μL of 3 mM Diprotin A was added to four wells as a positive quality control, providing a final Diprotin A concentration of 100 μM. To measure total enzyme activity (i.e. a negative control), without the influence of any compounds of Formula (I), 5 μL of distilled water was added to four wells.
The entire assay was incubated overnight (about 14-18 hours) at 37° C.

Series [1] in a line: Madin-Darby Canine Kidney Cells (MDCK) permeability assay. The series is classed as in vitro ADME. To be noted: dog, apparent permeability, apical to basolateral. As to the method:
Drug permeability through MDCK cell monolayers is known to be a useful tool as a model for cellular barrier for assessing intestinal epithelial drug transport, and thus to estimate intestinal permeability for orally administered compounds.
In this assay, monolayer cultures, suitable for investigation of compound permeability, were grown on Falcon/BD 96-well membrane inserts. The monolayers were maintained at 37° C. in a 5% CO2 atmosphere at 95% relative humidity until confluent. Apparent permeabilities of test compounds were determined in duplicate at a single concentration of 2 μM in the apical to basolateral direction. The transport investigations were initiated by the addition of the compound (2 μM of a solution containing 0.4% DMSO) to the apical compartment and the plates were maintained under culture conditions during the course of the experiment. The basolateral compartments following 2.5 hours of exposure and the final apical compartments were collected and analyzed for compound content by LC-MS/MS. The apparent permeability of each compound was then calculated.
Compounds of the present invention, such as those of Examples 18 and 27 were used in this assay. By comparison, comparison DPP-IV inhibitor compounds, which are generically disclosed in International Application WO02/076450, were also synthesized, and then used in this assay.

The next series concerns KK/H1J mice. Kind of series: In vivo assay for glucose lowering (oral glucose tolerance test). To be noted: fasted KK/H1J mice. The text has this:
The glucose lowering effects of DPP-IV inhibitors for some compounds of the present invention were exemplified in 4-6 week old KK/H1J mice (Jackson Labs) in the context of an oral glucose tolerance test. Oral glucose tolerance tests (“OGTT”) have been in use in humans since, at least, the 1930s, Pincus et al., Am. J. Med. Sci, 188: 782 (1934), and are routinely used in the diagnosis of human diabetes, though not to evaluate the efficacy of therapeutic agents in patients. KK mice have been used to evaluate glitazones (Fujita et al. Diabetes 32:804-810 (1983); Fujiwara et al., Diabetes 37: 1549-48 (1988); Izumi et al. Biopharm Drug. Dispos. 18:247-257 (1997)), metformin (Reddi et al. Diabet. Metabl. 19:44-51 (1993)), glucosidase inhibitors (Hamada et al. Jap. Pharmacol. Ther. 17:17-28 (1988); Matsuo et al. Am. J. Clin. Nutr. 55:314S-317S (1992)), and the extra-pancreatic effects of sulfonylureas (Kameda et al Arzneim. Forsch./Drug Res. 32:39044 (1982); Muller et al. Horm. Metabl. Res. 28:469-487 (1996)).
KK mice are derived from an inbred line first established by Kondo et al. (Kondo et al. Bull. Exp. Anim. 6:107-112 (1957)).
The mice were fasted overnight (about 14-18 hours), but allowed free access to water. […] The blood samples were centrifuged, the plasma collected and analyzed for glucose content on a Roche-Hitachi 912 glucose analyzer. […]

Regarding `Nc1nccnc1C(=O)N[C@H]1CC[C@H]([C@H](N)C(=O)N2CCSC2)CC1` (as salt: hydrochloride) [Example 35, (S)-3-amino-pyrazine-2-carboxylic acid [trans-4-(1-amino-2-oxo-2-thiazolidin-3-yl-ethyl)-cyclohexyl]-amide], the melting point fell in the range of 133.4 to 134.7 °C.

For `Nc1nccnc1C(=O)N[C@H]1CC[C@H]([C@H](N)C(=O)N2CCCC2)CC1` [Example 18, (S)-3-amino-pyrazine-2-carboxylic acid [trans-4-(1-Amino-2-oxo-2-pyrrolidin-1-yl-ethyl)-cyclohexyl]-amide], the pIC50 on DPP-IV is at least 7.00. In series [1], the Papp A→B at 2.5 h, 2 μM stood at 4.8 ×10⁻⁶ cm/s.

For `N[C@H](C(=O)N1CCCC1)[C@H]1CC[C@H](N2C(=O)c3ccncc3C2=O)CC1` [Example 23, 2-[trans-4-((1S)-1-amino-2-oxo-2-pyrrolidin-1-yl-ethyl)-cyclohexyl]-pyrrolo[3,4-c]pyridine-1,3-dione], on DPP-IV, the pIC50 was 7.74 and ≥ 7.00. Moreover, the “percent (%) inhibition of glucose excursion” value with KK/H1J mice (oral dose level of 5 mg/kg, plasma glucose at t=45 minutes) is given as “about 65%”.

On to `N[C@H](C(=O)N1CCCC1)[C@H]1CC[C@H](NC(=O)[C@@H]2C[C@@H](O)CN2C(=O)NCc2ccccc2)CC1` [Example 26, (2S,4R)-4-hydroxy-pyrrolidine-1,2-dicarboxylic acid 2-{[trans-4-((1S)-1-Amino-2-oxo-2-pyrrolidin-1-yl-ethyl)-cyclohexyl]-amide}1-benzylamide], for which the pIC50 at DPP-IV was at least 7.00. The “glucose lowering / inhibition of glucose excursion (in words)” value in the series with KK/H1J mice (oral dosing, dose not stated) is “did not demonstrate inhibition”.

`N[C@H](C(=O)N1CCCC1)[C@H]1CC[C@H](NC(=O)c2nccnc2NCCc2ccccc2)CC1` [Example 27]: on DPP-IV, the pIC50 was at least 7.00. The Papp A→B at 2.5 h, 2 μM in series [1] is 6.2 ×10⁻⁶ cm/s.

For the molecule `N#C[C@@H]1CCCN1C(=O)[C@@H](N)[C@H]1CC[C@H](NC(=O)c2cc3occc3cn2)CC1` [Example 61, N-(trans-4-{(1S)-1-amino-2-[(2S)-2-cyanopyrrolidin-1-yl]-2-oxoethyl}cyclohexyl)furo[3,2-c]pyridine-6-carboxamide], the pIC50 on DPP-IV is at least 7.00.

Turning to `C#Cc1coc2cnc(C(=O)N[C@H]3CC[C@H]([C@H](N)C(=O)N4CCC[C@H]4C#N)CC3)cc12` [Example 62, N-(trans-4-{(S)-1-amino-2-[(2S)-2-cyanopyrrolidin-1-yl]-2-oxoethyl}cyclohexyl)-3-ethynylfuro[2,3-c]pyridine-5-carboxamide], at DPP-IV, the pIC50 was at least 7.00.

As for `N[C@H](C(=O)N1CCCC1)[C@H]1CC[C@H](NC(=O)c2cnccn2)CC1` [reference compound], the Papp A→B at 2.5 h, 2 μM in series [1] turned out to be 1.1 ×10⁻⁶ cm/s.

For `Cc1cnc(C(=O)N[C@H]2CC[C@H]([C@H](N)C(=O)N3CCCC3)CC2)cn1` [reference compound], the Papp A→B at 2.5 h, 2 μM in series [1] stood at 0.7 ×10⁻⁶ cm/s.
